Key:
human MAO-B = molecular target: T1, human MAO-B (Homo sapiens, UniProt P27338); test: MAO-B enzymatic activity, spectrophotometric assay (tyramine, Amplex Red); type: biochemical; details: membranes of EBNA cells transfected with human MAO-B cDNA; 30 min preincubation at 37° C., pH 7.4; substrate tyramine
T1 construct: expressed in transfected cells; host or cells: EBNA cells (transient transfection); cell membranes used
T1 sequence (P27338 1-520): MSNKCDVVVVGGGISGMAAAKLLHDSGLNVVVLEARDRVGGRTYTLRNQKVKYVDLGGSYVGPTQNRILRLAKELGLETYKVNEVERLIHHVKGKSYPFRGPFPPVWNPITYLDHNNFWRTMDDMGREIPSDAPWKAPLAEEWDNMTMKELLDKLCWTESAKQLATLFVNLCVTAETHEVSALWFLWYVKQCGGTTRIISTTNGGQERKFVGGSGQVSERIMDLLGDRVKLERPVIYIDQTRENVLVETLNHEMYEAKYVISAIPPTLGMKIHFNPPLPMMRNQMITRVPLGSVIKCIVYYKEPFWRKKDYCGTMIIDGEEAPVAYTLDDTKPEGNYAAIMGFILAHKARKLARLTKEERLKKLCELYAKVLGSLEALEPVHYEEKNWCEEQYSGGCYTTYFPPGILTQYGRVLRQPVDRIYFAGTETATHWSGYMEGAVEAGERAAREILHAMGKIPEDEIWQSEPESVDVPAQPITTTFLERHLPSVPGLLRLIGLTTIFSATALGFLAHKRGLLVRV
Procedure: (§1) The cDNA's encoding human MAO-A and MAO-B were transiently transfected into EBNA cells using the procedure described by Schlaeger and Christensen [Cytotechnology 15:1–13 (1998)]. After transfection, cells were homogenised by means of a Polytron homogenizer in 20 mM Tris HCl buffer, pH 8.0, containing 0.5 mM EGTA and 0.5 mM phenylmethanesulfonyl fluoride. Cell membranes were obtained by centrifugation at 45,000×g and, after two rinsing step with 20 mM Tris HCl buffer, pH 8.0, containing 0.5 mM EGTA, membranes were eventually re-suspended in the above buffer and aliquots stored at −80° C. until use.
(§2) MAO-A and MAO-B enzymatic activity was assayed in 96-well-plates using a spectrophotometric assay adapted from the method described by Zhou and Panchuk-Voloshina [Analytical Biochemistry 253:169–174 (1997)]. Briefly, membrane aliquots were incubated in 0.1 M potassium phosphate buffer, pH 7.4, for 30 min at 37° C. with or without various concentrations of the compounds. After this period, the enzymatic reaction was started by the addition of the MAO substrate tyramine together with 1 U/ml horse-radish peroxidase (Roche Biochemicals) and 80 μM N-acetyl-3,7,-dihydroxyphenoxazine (Amplex Red, Molecular Probes). The samples were further incubated for 30 min at 37° C. in a final volume of 200 μl and absorbance was then determined at a wavelength of 570 nm using a SpectraMax plate reader (Molecular Devices). Background (non-specific) absorbance was determined in the presence of 10 μM clorgyline for MAO-A or 10 μM L-deprenyl for MAO-B.
(§3) IC50 values were determined from inhibition curves obtained using nine inhibitor concentrations in duplicate, by fitting data to a four parameter logistic equation using a computer program.

human MAO-A = molecular target: T2, human MAO-A (Homo sapiens, UniProt P21397); test: MAO-A enzymatic activity, spectrophotometric assay (tyramine, Amplex Red); type: biochemical; details: membranes of EBNA cells transfected with human MAO-A cDNA; 30 min preincubation at 37° C., pH 7.4; substrate tyramine
T2 construct: expressed in transfected cells; host or cells: EBNA cells (transient transfection); cell membranes used
T2 sequence (P21397 1-527): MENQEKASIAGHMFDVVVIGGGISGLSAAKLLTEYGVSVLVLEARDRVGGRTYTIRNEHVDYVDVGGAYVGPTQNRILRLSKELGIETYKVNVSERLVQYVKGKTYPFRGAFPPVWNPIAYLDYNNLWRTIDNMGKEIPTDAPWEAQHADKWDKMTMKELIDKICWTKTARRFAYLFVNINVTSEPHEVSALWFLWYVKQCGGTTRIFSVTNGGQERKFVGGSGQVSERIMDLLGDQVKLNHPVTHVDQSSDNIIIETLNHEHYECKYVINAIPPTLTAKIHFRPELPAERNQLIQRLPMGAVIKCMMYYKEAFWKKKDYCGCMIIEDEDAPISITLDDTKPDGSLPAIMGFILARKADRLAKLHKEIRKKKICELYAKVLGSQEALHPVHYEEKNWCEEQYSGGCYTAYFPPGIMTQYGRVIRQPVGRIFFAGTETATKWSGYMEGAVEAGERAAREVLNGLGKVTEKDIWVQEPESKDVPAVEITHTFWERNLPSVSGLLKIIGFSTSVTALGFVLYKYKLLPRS
Procedure: as §1, §2, §3

SMILES	IC50 (human MAO-B) [µM]	IC50 (human MAO-A) [µM]
NC(=O)C(=O)N1CCc2ccc(OCc3cccc(F)c3)cc2CC1 [Example 3, 2-[7-(3-Fluoro-benzyloxy)-1,2,4,5-tetrahydro-benzo[d]azepin-3-yl]-2-oxo-acetamide]	0.024	> 10
COCC(=O)N1CCc2ccc(OCc3cccc(F)c3)cc2CC1 [Example 2, 1-[7-(3-Fluoro-benzyloxy)-1,2,4,5-tetrahydro-benzo[d]azepin-3-yl]-2-methoxy-ethanone]	0.073	5.5
O=CN1CCc2ccc(OCc3cccc(F)c3)cc2CC1 [Example 6, 7-(3-Fluoro-benzyloxy)-1,2,4,5-tetrahydro-benzo[d]azepine-3-carbaldehyde]	0.007	4.1
CN1C=Cc2ccc(OCc3cccc(F)c3)cc2CC1=O [Example 13, 8-(3-Fluoro-benzyloxy)-3-methyl-1,3-dihydro-benzo[d]azepin-2-one]	0.15	4.6
COC(=O)N1CCc2ccc(OCc3cccc(F)c3)cc2CC1 [Example 5, 7-(3-Fluoro-benzyloxy)-1,2,4,5-tetrahydro-benzo[d]azepine-3-carboxylic Acid Methyl Ester]	0.068	4.5
CC(=O)N1CCc2ccc(OCc3cccc(F)c3)cc2CC1 [Example 1, 1-[7-(3-Fluoro-benzyloxy)-1,2,4,5-tetrahydro-benzo[d]azepin-3-yl]-ethanone]	0.082	> 10
CC(=O)N1C=Cc2ccc(OCc3cccc(F)c3)cc2CC1=O [Example 15, 3-Acetyl-8-(3-fluoro-benzyloxy)-1,3-dihydro-benzo[d]azepin-2-one]	0.13	> 9.5
NC(=O)N1CCc2ccc(OCc3cccc(F)c3)cc2CC1 [Example 8, 7-(3-Fluoro-benzyloxy)-1,2,4,5-tetrahydro-benzo[d]azepine-3-carboxylic Acid Amide]	0.021	> 10

From patent US7173023B2, “Bicyclic compounds” (Hoffmann-La Roche Inc., priority 2003, dated 2007)
